# Measurements published in patent US20230050398A1, “METHODS FOR INCREASING SHELF-LIFE OF OPHTHALMIC PHARMACEUTICAL COMPOSITIONS” (Harrow IP, LLC, priority 2021, published 2023).
# Columns and labels:
# Type in all cases: physicochemical
# [1] = Stability of comparator composition (Example 3): amount of active ingredient by UHPLC; conditions: for Pass/Fail: 25° C., acceptance 90-110% of label claim (bromfenac, moxifloxacin), 90-115% (prednisolone acetate); for % Label Claim (Potency) / Amount Found: stored at 25° C.
# Protocol: The data collected included the concentration of the active ingredients in the composition. The amount of active ingredient in the composition was determined by ultra high performance liquid chromatography (UHPLC). The comparator composition was stored at 25° C. The composition comprised the active ingredients bromfenac, moxifloxacin, and prednisolone acetate.
# A sample of the composition was provided on Nov.
# [2] = Stability of ophthalmic pharmaceutical composition of Example 2: amount of active ingredient by UHPLC; conditions: Example 2 composition; for Pass/Fail: 25° C., acceptance 90-110% of label claim (bromfenac, moxifloxacin), 90-115% (prednisolone acetate); for % Label Claim / Amount Found: stored at 25° C.
# Protocol: (§1) The stability of an ophthalmic pharmaceutical composition made by the method of the present disclosure was studied and confirmed by the Compounder's International Analytical Laboratory. The data collected included the concentration of the active ingredients in the composition, the pH, and the appearance, color, and odor of the composition. The amount of active ingredient in the ophthalmic pharmaceutical composition was determined by ultra high performance liquid chromatography (UHPLC). The composition was stored at 25° C. The composition comprised the active ingredients bromfenac, moxifloxacin, and prednisolone acetate. The composition was considered stable if it contained 90-110% of the label claim of bromfenac and moxifloxacin and 90-115% of the label claim of prednisolone acetate. pH was determined according to USP 791, incorporated by reference herein. Additionally, the container enclosure was tested at baseline according to USP 1207 and 381, incorporated by reference herein. No blue dye was observed via UV-Vis spectrophotometry.
# A sample of the composition was provided on May 28, 2021. […] 7, 2021.
# [3] = Stability of ophthalmic pharmaceutical composition of Example 1: amount of active ingredient by UHPLC; conditions: Example 1 composition; for Pass/Fail: 25° C., acceptance 90-110% of label claim (bromfenac, moxifloxacin), 90-115% (prednisolone acetate); for % Label Claim / Amount Found: stored at 25° C.
# Protocol: as §1, with “acetate.” for “acetate. pH was determined according to USP 791, incorporated by reference herein. Additionally, the container enclosure was tested at baseline according to USP 1207 and 381, incorporated by reference herein. No blue dye was observed via UV-Vis spectrophotometry.”
# A sample of the composition was provided on Jul. 31, 2020. […] 21, 2020.
structure (smiles),measurement,setting,value
"Nc1c(CC(=O)O)cccc1C(=O)c1ccc(Br)cc1 [Bromfenac, bromfenac]",Pass/Fail,[1]; after 30 days,Pass
same,Pass/Fail,[1]; after 60 days,Pass
same,Pass/Fail,[1]; after 90 days,Fail
same,Pass/Fail,[1]; after 120 days,Fail
same,Pass/Fail,[1]; after 150 days,Fail
same,Pass/Fail,[1]; after 180 days,Fail
same,Pass/Fail,[1]; baseline,Pass
same,% Label Claim (Potency),[1]; after 30 days,94.9%
same,Amount Found,[1]; after 30 days,0.071%
same,% Label Claim (Potency),[1]; after 60 days,92.2%
same,Amount Found,[1]; after 60 days,0.0692%
same,% Label Claim (Potency),[1]; after 90 days,87%
same,Amount Found,[1]; after 90 days,0.0660%
same,% Label Claim (Potency),[1]; after 120 days,82%
same,Amount Found,[1]; after 120 days,0.0618%
same,% Label Claim (Potency),[1]; after 150 days,84%
same,Amount Found,[1]; after 150 days,0.0627%
same,% Label Claim (Potency),[1]; after 180 days,78%
same,Amount Found,[1]; after 180 days,0.0584%
same,% Label Claim (Potency),[1]; baseline,99.6%
same,Amount Found,[1]; baseline,0.0747%
same,Pass/Fail,[2]; after 90 days,Pass
same,Pass/Fail,[2]; after 180 days,Pass
same,Pass/Fail,[2]; after 270 days,Pass
same,Pass/Fail,[2]; after 300 days,Pass
same,Pass/Fail,[2]; after 365 days,Pass
same,Pass/Fail,[2]; baseline,Pass
same,% Label Claim,[2]; after 90 days,101.9%
same,Amount Found,[2]; after 90 days,0.07646%
same,% Label Claim,[2]; after 180 days,98.6%
same,Amount Found,[2]; after 180 days,0.07398%
same,% Label Claim,[2]; after 270 days,92.5%
same,Amount Found,[2]; after 270 days,0.06939%
same,% Label Claim,[2]; after 300 days,95.5%
same,Amount Found,[2]; after 300 days,0.0716%
same,% Label Claim,[2]; after 365 days,91.1%
same,Amount Found,[2]; after 365 days,0.06834%
same,% Label Claim,[2]; baseline,100.0%
same,Amount Found,[2]; baseline,0.07499%
same,Pass/Fail,[3]; after 90 days,Pass
same,Pass/Fail,[3]; after 120 days,Pass
same,Pass/Fail,[3]; after 180 days,Pass
same,Pass/Fail,[3]; after 210 days,Pass
same,Pass/Fail,[3]; after 270 days,Pass
same,Pass/Fail,[3]; baseline,Pass
same,% Label Claim,[3]; after 90 days,98.3%
same,Amount Found,[3]; after 90 days,0.07373%
same,% Label Claim,[3]; after 120 days,100.8%
same,Amount Found,[3]; after 120 days,0.07559%
same,% Label Claim,[3]; after 180 days,105.6%
same,Amount Found,[3]; after 180 days,0.07917%
same,% Label Claim,[3]; after 210 days,101.6%
same,Amount Found,[3]; after 210 days,0.0762%
same,% Label Claim,[3]; after 270 days,97.5%
same,Amount Found,[3]; after 270 days,0.07312%
same,% Label Claim,[3]; baseline,107.0%
same,Amount Found,[3]; baseline,0.08023%
"CC(=O)OCC(=O)[C@@]1(O)CC[C@H]2[C@@H]3CCC4=CC(=O)C=C[C@]4(C)[C@H]3[C@@H](O)C[C@@]21C [Prednisolone acetate, prednisolone acetate]",Pass/Fail,[1]; after 30 days,Pass
same,Pass/Fail,[1]; after 60 days,Pass
same,Pass/Fail,[1]; after 90 days,Pass
same,Pass/Fail,[1]; after 120 days,Pass
same,Pass/Fail,[1]; after 150 days,Pass
same,Pass/Fail,[1]; after 180 days,Pass
same,Pass/Fail,[1]; baseline,Pass
same,% Label Claim (Potency),[1]; after 30 days,97.8%
same,Amount Found,[1]; after 30 days,0.978%
same,% Label Claim (Potency),[1]; after 60 days,90.0%
same,Amount Found,[1]; after 60 days,0.9001%
same,% Label Claim (Potency),[1]; after 90 days,99%
same,Amount Found,[1]; after 90 days,0.9885%
same,% Label Claim (Potency),[1]; after 120 days,95%
same,Amount Found,[1]; after 120 days,0.9505%
same,% Label Claim (Potency),[1]; after 150 days,93%
same,Amount Found,[1]; after 150 days,0.926%
same,% Label Claim (Potency),[1]; after 180 days,91%
same,Amount Found,[1]; after 180 days,0.907%
same,% Label Claim (Potency),[1]; baseline,98.4%
same,Amount Found,[1]; baseline,0.984%
same,Pass/Fail,[2]; after 90 days,Pass
same,Pass/Fail,[2]; after 180 days,Pass
same,Pass/Fail,[2]; after 270 days,Pass
same,Pass/Fail,[2]; after 300 days,Pass
same,Pass/Fail,[2]; after 365 days,Pass
same,Pass/Fail,[2]; baseline,Pass
same,% Label Claim,[2]; after 90 days,98.0%
same,Amount Found,[2]; after 90 days,0.9805%
same,% Label Claim,[2]; after 180 days,98.8%
same,Amount Found,[2]; after 180 days,0.9883%
same,% Label Claim,[2]; after 270 days,97.4%
same,Amount Found,[2]; after 270 days,0.9743%
same,% Label Claim,[2]; after 300 days,99.5%
same,Amount Found,[2]; after 300 days,0.9954%
same,% Label Claim,[2]; after 365 days,99.6%
same,Amount Found,[2]; after 365 days,0.9960%
same,% Label Claim,[2]; baseline,102.4%
same,Amount Found,[2]; baseline,1.024%
same,Pass/Fail,[3]; after 90 days,Pass
same,Pass/Fail,[3]; after 120 days,Pass
same,Pass/Fail,[3]; after 180 days,Pass
same,Pass/Fail,[3]; after 210 days,Pass
same,Pass/Fail,[3]; after 270 days,Pass
same,Pass/Fail,[3]; baseline,Pass
same,% Label Claim,[3]; after 90 days,99.2%
same,Amount Found,[3]; after 90 days,0.9915%
same,% Label Claim,[3]; after 120 days,103.5%
same,Amount Found,[3]; after 120 days,1.035%
same,% Label Claim,[3]; after 180 days,105.6%
same,Amount Found,[3]; after 180 days,1.056%
same,% Label Claim,[3]; after 210 days,106.5%
same,Amount Found,[3]; after 210 days,1.065%
same,% Label Claim,[3]; after 270 days,103.6%
same,Amount Found,[3]; after 270 days,1.036%
same,% Label Claim,[3]; baseline,100.0%
same,Amount Found,[3]; baseline,1.000%
